In PubChem BioAssay AID1159565 (GlaxoSmithKline (GSK), 2015):
pIC50: −log10 of the molar value. Activity calls are given as the source filed them. The rule behind the calls is not given here.

Test system: T. cruzi-infected H9C2 cardiomyocytes, high-content imaging
Experiment: anti-T. cruzi activity in infected cardiomyocytes – imaging, H9C2 host cardiomyocytes, host toxicity (AID 1159565);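 note: infected cells incubated 72 h after plating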
[1] = measured here: H9C2 host cell toxicity
[2] = measured here: amastigotes per cell

## Cc1cc(Oc2cc(Cl)c(Cl)cc2Cl)n2ncnc2n1
  pIC50: 4.60
[1]
  pIC50: 5.10
[2]
  pIC50: 5.00

## COc1ccc(C(C)(C)C)cc1S(=O)(=O)n1ccnc1
  pIC50: 6.70
[1]
  pIC50: < 4.30
[2]
  pIC50: 6.70

## CCN(Cc1cccs1)C(=O)CSc1nnc(-c2ccc3c(c2)OCO3)o1
  pIC50: 5.60
[1]
  pIC50: < 4.30
[2]
  pIC50: 5.80

## COc1cnc2ccc(=O)n(CCN3CCC(NC/C=C/c4cc(F)ccc4F)CC3)c2c1
  pIC50: 7.70
[1]
  pIC50: 4.80
[2]
  pIC50: 8.00

## COc1ccc2nccc(NC(=O)C3(OC)CCN(CC(O)c4ccc5c(c4)OCCO5)CC3)c2n1 (stereo not drawn)
  pIC50: 6.49
[1]
  pIC50: 4.80
[2]
  pIC50: 6.89

## O=c1cc(CSc2ccc(Cl)cc2)nc(-c2ccccn2)[nH]1
  pIC50: 5.80
[1]
  pIC50: 5.49
[2]
  pIC50: 6.10

## N#Cc1ccc(S(=O)(=O)N2CCC3(CCN(c4ccccc4)C3=O)CC2)cc1
  pIC50: 6.00
[1]
  pIC50: < 4.30
[2]
  pIC50: 6.20

## O=C(Nc1nc2cc(Cl)ccc2o1)c1cccc(Cl)c1
  pIC50: 6.10
[1]
  pIC50: 5.60
[2]
  pIC50: 6.20

## O=C(O)[C@H]1C[C@@H]1c1ccc(-c2ccc(CN(CCc3ccccn3)C(=O)C3CCC3)cc2)cc1
  pIC50: 4.49
[1]
  pIC50: < 4.30
[2]
  pIC50: 4.49

## OCCCNc1nc(Nc2ccncc2)nc2ccccc12
  pIC50: 5.89
[1]
  pIC50: < 4.30
[2]
  pIC50: 6.70

## O=C(c1cccc(Nc2ncc(-c3ccc4c(c3)OCO4)cn2)c1)N1CCOCC1
  pIC50: 5.89
[1]
  pIC50: 5.20
[2]
  pIC50: 6.10

## COc1cc(C(C)C)c(S(C)(=O)=O)cc1C(=O)N1CCN(c2ccccc2Cl)CC1
  pIC50: 5.60
[1]
  pIC50: 4.70
[2]
  pIC50: 5.70

## O=C(NCCc1ccccc1Cl)c1cccn1-c1cccnc1
  pIC50: 6.30
[1]
  pIC50: < 4.30
[2]
  pIC50: 6.30

## Cc1nnnn1-c1cccc(C(=O)N2CCC[C@@]3(C)c4ncncc4CCC23)c1 (stereo partly drawn)
  pIC50: 6.49
[1]
  pIC50: < 4.30
[2]
  pIC50: 6.49

## Cc1nc2c(-c3cccs3)c(C)nn2c(NCCO)c1C
  pIC50: 4.49
[1]
  pIC50: < 4.30
[2]
  pIC50: 4.80

## Cc1nc(N2CC(C)OC(C)C2)sc1C(=O)Nc1ccc2c(c1)OCO2 (stereo not drawn)
  pIC50: 5.40
[1]
  pIC50: < 4.30
[2]
  pIC50: 5.60

## N#Cc1cccc(CN2CCC(N(Cc3cccnc3)C(=O)c3cc(F)c(F)cc3F)CC2)c1
  pIC50: 6.40
[1]
  pIC50: < 4.30
[2]
  pIC50: 6.49

## CNC(=O)Oc1ccc(C(=O)NCc2ccccc2)cc1OC(=O)NC
  pIC50: 4.40
[1]
  pIC50: < 4.30
[2]
  pIC50: 4.40

## CCN(CC)S(=O)(=O)c1ccc(Cn2nc(C(=O)Nc3ccncn3)c3ccccc32)cc1
  pIC50: 6.40
[1]
  pIC50: 4.60
[2]
  pIC50: 6.40

## O=C(c1ccc(Cl)cc1)c1ccc(OC(=O)N2CCOCC2)cc1
  IC50: > 50000 nM (inactive)
[1]
  pIC50: < 4.30
[2]
  pIC50: 5.20

## Cc1ccc(CNC2CCN(C[C@@H]3Cn4c(=O)ccc5ccc(=O)n3c54)CC2)cc1F
  pIC50: 5.89
[1]
  pIC50: < 4.30
[2]
  pIC50: 6.00

## CCc1ccccc1[C@@H](C)NC(=O)c1cnc2c(cnn2CC)c1NC1CCN(C(N)=O)CC1
  IC50: > 50000 nM (inactive)
[1]
  pIC50: < 4.30
[2]
  pIC50: 4.40

## O=C(NCC(c1cccnc1)N1CCc2ccccc2C1)C(=O)Nc1cccc(Cl)c1 (stereo not drawn)
  pIC50: 7.10
[1]
  pIC50: 4.60
[2]
  pIC50: 7.20

## CN1CCCN(C(=O)c2ccc(N3CCCC3)cc2Cl)CC1
  pIC50: 6.00
[1]
  pIC50: < 4.30
[2]
  pIC50: 6.20

## COc1ncc(-c2ccc3ncnc(N4CCOCC4)c3c2)cc1NS(C)(=O)=O
  pIC50: 5.20
[1]
  pIC50: 5.80
[2]
  pIC50: 5.60

## CCOc1ccc2nc(NC(=O)c3ccc([N+](=O)[O-])s3)sc2c1
  pIC50: 5.89
[1]
  pIC50: 5.00
[2]
  pIC50: 6.00

## O=C(N1CCc2ccccc2CC1)C1(C(=O)N2CCC(n3c(=O)[nH]c4ncccc43)CC2)CC1
  pIC50: 6.10
[1]
  pIC50: < 4.30
[2]
  pIC50: 6.20

## COCc1cnc2c(c1SCc1c(F)cccc1Cl)c(=O)n(C)c(=O)n2C
  pIC50: 5.40
[1]
  pIC50: < 4.30
[2]
  pIC50: 5.60

## CN(C)S(=O)(=O)c1cccc(C(=O)Nc2nc(-c3ccccn3)cs2)c1
  pIC50: 5.80
[1]
  pIC50: 5.10
[2]
  pIC50: 6.00

## CCOC(=O)c1cn[nH]c1S(=O)(=O)N1CCC1c1ccccc1 (stereo not drawn)
  IC50: > 50000 nM (inactive)
[1]
  pIC50: < 4.30
[2]
  pIC50: < 4.30

## NC(=O)c1cc(F)ccc1Nc1nc(NC2CCC(O)CC2)ncc1Br (stereo not drawn)
  pIC50: 5.70
[1]
  pIC50: 6.30
[2]
  pIC50: 6.10

## O=C(NCC1CCCCN1C(=O)c1cccc2ccccc12)c1ccccc1 (stereo not drawn)
  pIC50: 5.30
[1]
  pIC50: < 4.30
[2]
  pIC50: 5.49

## Cc1nn2c(NCCCO)c3c(nc2c1-c1cccs1)CCC3
  pIC50: 4.30
[1]
  pIC50: < 4.30
[2]
  pIC50: 5.30

## Cc1nc(N2CCC(C(=O)N3CCC(O)(c4cccnc4)CC3)CC2)nc2ccc(C(C)C)cc12
  pIC50: 6.49
[1]
  pIC50: 4.40
[2]
  pIC50: 6.40

## Cc1cc(C)c(C#N)c(SCC(=O)c2ccc3c(c2)OCO3)n1
  pIC50: 6.10
[1]
  pIC50: < 4.30
[2]
  pIC50: 6.40

## COc1ccc(NS(=O)(=O)c2cc(NC(=O)Cc3ccc(C)cc3)ccc2N2CCOCC2)cc1
  pIC50: 5.30
[1]
  pIC50: < 4.30
[2]
  pIC50: 5.60

## CC(C)CC(=O)Nc1cc(C2CC2)nn1-c1nc2c(c(=O)[nH]1)CCCC2
  pIC50: 6.30
[1]
  pIC50: 5.60
[2]
  pIC50: 6.89

## CCOC(=O)c1noc(N)c1-c1ccccc1
  IC50: > 50000 nM (inactive)
[1]
  pIC50: < 4.30
[2]
  pIC50: < 4.30

## c1cc(-c2ncc(-c3ccn[nH]3)s2)ccn1
  pIC50: 6.60
[1]
  pIC50: < 4.30
[2]
  pIC50: 6.60

## CN(Cc1nnnn1C1CCN(Cc2ccc(-n3ccnc3)cc2)CC1)c1ccc(F)cc1F
  pIC50: 6.49
[1]
  pIC50: < 4.30
[2]
  pIC50: 6.49

## O=C1NCc2cccc(Nc3nc(NC4CCC(O)CC4)ncc3Br)c21 (stereo not drawn)
  pIC50: 6.00
[1]
  pIC50: 7.00
[2]
  pIC50: 6.40

## O=C(c1ccc(O)c(Cl)c1)N1CCN(c2cnccn2)CC1
  IC50: > 50000 nM (inactive)
[1]
  pIC50: < 4.30
[2]
  pIC50: 5.00

## CCCNC(=O)Nc1cccc(-c2nc3ncccc3o2)c1
  pIC50: 5.40
[1]
  pIC50: 4.60
[2]
  pIC50: 5.49

## Cc1c(CNC(=O)c2ccc(Cn3cc(Cl)c([N+](=O)[O-])n3)cc2)cnn1C
  pIC50: 5.80
[1]
  pIC50: < 4.30
[2]
  pIC50: 6.10

## CCc1cccc(-n2nc(OCC(=O)NC3CCCC3)c3cccnc32)c1
  IC50: > 50000 nM (inactive)
[1]
  pIC50: < 4.30
[2]
  pIC50: < 4.30

## Cc1ccc(Nc2nc(-c3ccccn3)cc(N3CCCC(O)C3)n2)cc1 (stereo not drawn)
  pIC50: 5.20
[1]
  pIC50: 6.30
[2]
  pIC50: 5.60

## Cc1cc2cc(CNc3ccc4c(c3)OCO4)c(=O)n(CCO)c2cc1C
  pIC50: 6.60
[1]
  pIC50: < 4.30
[2]
  pIC50: 6.70

## O=C1CCCCCC1(Cc1cnc[nH]1)c1ccc(Cl)cc1Cl (stereo not drawn)
  pIC50: 6.60
[1]
  pIC50: < 4.30
[2]
  pIC50: 6.49

## CNS(=O)(=O)c1ccccc1Nc1nc(Nc2ccnn2C)ncc1Cl
  pIC50: 6.00
[1]
  pIC50: 6.80
[2]
  pIC50: 6.20

## COc1ccc(C(=O)[C@H]2C[C@@H]2CN(Cc2ccccn2)Cc2ccccn2)cc1
  pIC50: 5.80
[1]
  pIC50: 4.60
[2]
  pIC50: 6.00

## O=S(=O)(c1ccccc1C(F)(F)F)N1CCN(Cc2ccc(-n3ccnc3)cc2)CC1
  pIC50: 6.60
[1]
  pIC50: < 4.30
[2]
  pIC50: 6.70
